Data from ChEMBL document CHEMBL1126394, “Synthesis of 1-(2-Indolyl)pyridinium salts: a prodrug approach to acetylcholinesterase inhibition” (Bioorg Med Chem Lett, 1992).

Assays:
Acetylcholinesterase = Acetylcholinesterase (Electrophorus electricus, UniProt O42275); assay: Inhibitory activity against acetylcholinesterase as a prodrug was demonstarted
[1] = pKa value was determined; format: physicochemical

Sequence of Acetylcholinesterase (O42275 whole entry): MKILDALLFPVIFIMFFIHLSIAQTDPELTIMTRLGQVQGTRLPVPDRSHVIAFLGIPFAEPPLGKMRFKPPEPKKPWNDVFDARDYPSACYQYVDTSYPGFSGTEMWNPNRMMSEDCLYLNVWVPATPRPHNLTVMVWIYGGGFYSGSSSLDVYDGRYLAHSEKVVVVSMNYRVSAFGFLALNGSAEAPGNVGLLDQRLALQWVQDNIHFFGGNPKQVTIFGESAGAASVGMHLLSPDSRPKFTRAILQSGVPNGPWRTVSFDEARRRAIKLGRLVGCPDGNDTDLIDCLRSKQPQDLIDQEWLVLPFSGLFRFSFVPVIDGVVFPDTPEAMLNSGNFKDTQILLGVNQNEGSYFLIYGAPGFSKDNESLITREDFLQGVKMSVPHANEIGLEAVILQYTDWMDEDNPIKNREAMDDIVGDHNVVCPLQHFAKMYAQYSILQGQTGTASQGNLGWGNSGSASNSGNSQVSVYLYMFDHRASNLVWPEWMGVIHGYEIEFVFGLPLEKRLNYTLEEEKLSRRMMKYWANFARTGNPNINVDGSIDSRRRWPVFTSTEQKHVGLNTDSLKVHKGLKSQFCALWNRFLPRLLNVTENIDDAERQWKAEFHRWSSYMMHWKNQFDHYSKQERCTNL

Compound | IC50 (Acetylcholinesterase) [µM] | pKa [1]
CC1c2cc(OC(=O)N(C)C)ccc2NC1[n+]1cccc(C(N)=O)c1 (configuration not stated) | 50 | –
CNC(=O)Oc1ccc2c(c1)[C@]1(C)CCN(C)[C@@H]1N2C [PHYSOSTIGMINE] | – | 7.9
